The molecules below were run against T1, human ZAC (zinc activated ion channel) (Homo sapiens, UniProt Q401N2) (assay: Whole cell patch-clamp recording of currents from HEK cells transfected with human ZAC). Settings: not given.
T1 construct: expressed in transfected cells; host or cells: HEK (human embryonic kidney) cells, transient calcium phosphate transfection, vector pcDNA1.1/amp, GFP co-transfected on a separate plasmid (pCDM8)
T1 sequence (Q401N2 26-412): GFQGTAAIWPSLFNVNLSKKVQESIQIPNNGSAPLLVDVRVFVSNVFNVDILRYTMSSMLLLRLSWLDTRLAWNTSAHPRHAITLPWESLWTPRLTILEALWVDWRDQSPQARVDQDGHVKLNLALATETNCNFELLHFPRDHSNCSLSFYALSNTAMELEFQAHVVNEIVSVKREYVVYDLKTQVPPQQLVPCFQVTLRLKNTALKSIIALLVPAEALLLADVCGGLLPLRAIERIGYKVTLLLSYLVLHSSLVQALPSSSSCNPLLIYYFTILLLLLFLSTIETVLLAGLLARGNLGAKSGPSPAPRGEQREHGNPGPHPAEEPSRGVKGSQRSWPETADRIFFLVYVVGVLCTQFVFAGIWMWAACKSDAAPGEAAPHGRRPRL
Format: cell-based
Protocol: To generate HEK expressing hZAC, HEK cells were grown in Dulbecco's modified Eagle's medium, supplemented with 10% calf serum, 100 IU/ml penicillin, and 100 μg/ml streptomycin. Following confluence, the cells were seeded into 35 mm diameter dishes and transfected with cDNAs encoding the human ZAC subunit (in pcDNA1.1/amp) and green fluorescent protein (GFP) (in pCDM8). Cells were transfected using calcium phosphate precipitation as known in the art. Cells were used 24-44 h after transfection.
The whole cell patch-clamp technique was used to record currents from HEK cells. The bath was perfused continuously (5 ml/min) with an extracellular solution containing (in mM); NaCl, 140; KCl, 4.7; MgCl2, 1.2; CaCl2, 2.5; glucose, 11; and HEPES, 10 (pH 7.4 with NaOH). The electrode solution contained (in mM); KCl, 140; MgCl2, 2.0; EGTA, 11; and HEPES, 10 (pH 7.4 with KOH). The intracellular solution used to characterize the cation permeability of ZAC channels contained (in mM); KCl, 70; N-methyl-D-glucamine, 70; MgCl2, 2.0; EGTA, 11; and HEPES, 10 (pH 7.4 with HCl). The intracellular solution used to determine the contribution of Cl^− to the ZAC currents contained (in mM); KCl, 70; K^+ gluconate, 70; MgCl2, 2.0; EGTA, 11; and HEPES, 10 (pH 7.4 with KOH). Junction potentials were nulled prior to each experiment. Inappropriate inappropriate compensation was ignored in graphs of current-voltage relationships, but equilibrium potential values were corrected. Cells were clamped at −60 mV unless otherwise stated. Drugs were applied either by pressure ejection from modified micropipettes or by bath perfusion as known in the art. Experiments were performed at 22-24° C.
Currents were amplied (Axopatch 200A, Axon Instruments), low pass-filtered at 1 kHz, and digitized (Digidata 1320, Axon Instruments, Foster City, Calif.) for acquisition onto the hard drive of a personal computer. Currents were averaged, superimposed, and measured using pCLAMP software (Axon Instruments). Zn^+2 concentration-response data were obtained by prolonged (2 s) pressue ejection of randomized agonist concentrations from low resistance pipettes as known in the art.
To compensate, 1 mM Zn^+2 was applied before each concentration of Zn^+2. The amplitudes of the Zn^+2 activated currents were subsequently normalized to the current elicited by the prior application of 1 mM Zn^+2.
Graphs of concentration-response relationships were fitted using a logistic function as known in the art. Current-voltage relationships were analyzed by averaging at least two currents recorded at each holding potential. Individual current-voltage relationships were plotted, and a linear fit to points either side of current reversal yielded the equilibrium potential. All data are expressed as the arithmetic mean±S.E., and statistical comparisons were made using the Student's t test.

| Molecule | Activation of ZAC | Effect of antagonists on ZAC (inhibition) |
| --- | --- | --- |
| CNC[C@H](O)c1ccc(O)c(O)c1 [epinephrine] | did not activate | – |
| CN1CC[C@]23c4c5ccc(O)c4O[C@H]2[C@@H](O)C=C[C@H]3[C@H]1C5 [morphine] | did not activate | – |
| α-bungarotoxin | – | no effect |
| CC(C)c1cccc(C(C)C)c1O [propofol] | did not activate | – |

Same assay, conditions: HEK cells expressing hZAC, whole cell patch-clamp

| Molecule | Concentration required for activation of ZAC [µM] | Effect of antagonists on ZAC (inhibition) |
| --- | --- | --- |
| [Zn+2] [Zn^+2, zinc] | > 30 | – |
| CNC1(C)C2CCC(C2)C1(C)C (stereo not shown) [mecamylamine] | – | no effect |
| Cc1nccn1CC1CCc2c(c3ccccc3n2C)C1=O (stereo not shown) [ondansetron] | – | no effect |
| COc1cc2c3cc1Oc1cc(ccc1O)C[C@@H]1c4c(cc(OC)c(O)c4Oc4ccc(cc4)C[C@@H]3N(C)CC2)CC[N+]1(C)C [Tubocurarine] | – | inhibited |
| C[N+]1(C)CCc2cc3c(cc2[C@H]1[C@@H]1OC(=O)c2c1ccc1c2OCO1)OCO3.[I-] [bicuculline methiodide] | – | no effect |

Same assay, conditions: HEK cells expressing hZAC, whole cell patch-clamp, clamped at −60 mV, 22-24° C.

| Molecule | Activation of ZAC |
| --- | --- |
| CC(=O)[C@H]1CC[C@H]2[C@@H]3CC[C@H]4C[C@H](O)CC[C@]4(C)[C@H]3CC[C@]12C [allopregnanolone] | did not activate |
| N[C@@H](CCC(=O)O)C(=O)O [glutamate] | did not activate |
| somatostain | did not activate |
| NCCc1ccc(O)c(O)c1 [dopamine] | did not activate |
| [Zn+2] [Zn^+2, zinc] | activated |
| NCCCC(=O)O [GABA, γ-amino butyric acid] | did not activate |
| NCCc1c[nH]c2ccc(O)cc12 [5-HT, 5-hydroxytryptamine] | did not activate |
| neuropeptide Y | did not activate |
| galonin | did not activate |
| CC[C@H](C)[C@@H]1NC(=O)[C@H](Cc2ccc(O)cc2)NC(=O)[C@@H](N)CSSC[C@@H](C(=O)N2CCC[C@H]2C(=O)N[C@@H](CC(C)C)C(=O)NCC(N)=O)NC(=O)[C@H](CC(N)=O)NC(=O)[C@H](CCC(N)=O)NC1=O [oxytocin] | did not activate |
| NCC(=O)O [glycine] | did not activate |
| NCCc1c[nH]cn1 [histamine] | did not activate |
| N[C@@H](CCC(=O)N[C@@H](CS)C(=O)NCC(=O)O)C(=O)O [glutathione] | did not activate |
| Nc1ncnc2c1ncn2[C@@H]1O[C@H](COP(=O)(O)OP(=O)(O)OP(=O)(O)O)[C@@H](O)[C@H]1O [ATP] | did not activate |
| CNC1(c2ccccc2Cl)CCCCC1=O (stereo not shown) [ketamine] | did not activate |

Same assay, conditions: HEK cells expressing hZAC, whole cell patch-clamp; mean±S.E.

| Molecule | Equilibrium potential of Zn+2 activated currents [mV] |
| --- | --- |
| [Zn+2] [Zn^+2, zinc] | −5±1 |

— patent US20040248245A1, “Zinc activated ion channel” (priority 2003, published 2004)
